Source: ChEMBL document CHEMBL4651402, “Screening of ~5500 FDA-approved drugs and clinical candidates for anti-SARS-CoV-2 activity” (2021)

System: SARS-CoV-2
Test: microbe, parasite or virus in culture
Conditions: Severe acute respiratory syndrome coronavirus 2, Vero C1008, 48 h

SMILES | IC50 | IC50 (read-out: pIC50 (converted))
COc1cc(N)c(Cl)cc1C(=O)NC1CN2CCC1CC2 (stereo not drawn) [ZACOPRIDE] | > 20 µM | > 20 µM
CC[C@H](CC[C@@H](C)[C@H]1CC[C@H]2[C@@H]3CC=C4C[C@@H](O)CC[C@]4(C)[C@H]3CC[C@]12C)C(C)C [BETA-SITOSTEROL] | > 20 µM | > 20 µM
C[C@@H]1CC[C@@]2(OC1)OC1CC3C4CC[C@H]5CC(O)CC[C@]5(C)C4CC[C@]3(C)C1[C@@H]2C (stereo partly drawn) | > 20 µM | > 20 µM
C[N+]12CCC(CC1)C(OC(=O)C(O)(c1ccccc1)c1ccccc1)C2 (stereo not drawn) | > 20 µM | > 20 µM
c1cnc(SCc2cccnc2)nc1 [TASULDINE] | > 20 µM | > 20 µM
O=C(/C=C/c1ccc(O)c(O)c1)OC(Cc1ccc(O)c(O)c1)C(=O)O (stereo not drawn) | > 20 µM | > 20 µM
CCCN(CCC)C(=O)C(CCC(=O)O)NC(=O)c1ccccc1 (stereo not drawn) [PROGLUMIDE] | > 20 µM | > 20 µM
N=C1NC(=O)N2CC12 (stereo not drawn) [IMEXON] | > 20 µM | > 20 µM
O=C(O)c1ccccc1NCCc1ccccc1 [ENFENAMIC ACID] | > 20 µM | > 20 µM
CN1CCc2c(c3ccccc3n2Cc2ccccc2)C1 [MEBHYDROLIN] | > 20 µM | > 20 µM
COc1cc([C@@H]2c3cc4c(cc3[C@H](O)[C@H]3COC(=O)[C@H]23)OCO4)cc(OC)c1OC [PODOFILOX] | > 20 µM | > 20 µM
C[C@@H](O)[C@H]1C(=O)N2C(C(=O)O)=C(SCCNC=N)C[C@H]12 [IMIPENEM ANHYDROUS] | > 20 µM | > 20 µM
CCN(CC)CCOCCOC(=O)C1(c2ccccc2)CCCC1 [CARBETAPENTANE] | > 20 µM | > 20 µM
NC1=NCC2c3ccccc3Cc3ccccc3N12 (stereo not drawn) [EPINASTINE] | > 20 µM | > 20 µM
CNS(=O)(=O)Cc1ccc2[nH]cc(CCN(C)C)c2c1 | > 20 µM | > 20 µM
COc1cccc(CCc2ccccc2OCC(CN(C)C)OC(=O)CCC(=O)O)c1 (stereo not drawn) [SARPOGRELATE] | > 20 µM | > 20 µM
Cc1cc(Nc2ncnc3ccc(-c4ccc(CNCCS(C)(=O)=O)o4)cc23)ccc1Oc1ccn2ncnc2c1 | > 20 µM | > 20 µM
CN[C@@H]1CC[C@@H](c2ccccc2)c2ccccc21 [TAMETRALINE] | > 20 µM | > 20 µM
Nc1ccc(S(=O)(=O)Nc2cnc3ccccc3n2)cc1 [SULFAQUINOXALINE] | > 20 µM | > 20 µM
CCOC(=O)[C@H](CCc1ccccc1)N[C@@H](C)C(=O)N1Cc2cc(OC)c(OC)cc2C[C@H]1C(=O)O [MOEXIPRIL] | > 20 µM | > 20 µM
Cc1cc(-c2ccccc2)nnc1NCCN1CCOCC1 [MINAPRINE] | > 20 µM | > 20 µM
CN1CCN(/C=C2\N=C3CN=C(c4ccccc4Cl)c4cc([N+](=O)[O-])ccc4N3C2=O)CC1 [LOPRAZOLAM] | > 20 µM | > 20 µM
CC(=O)OC[C@H]1O[C@@H](S)[C@H](OC(C)=O)[C@@H](OC(C)=O)[C@@H]1OC(C)=O | > 20 µM | > 20 µM
N[C@H](CO)Cc1ccccc1 [L-PHENYLALANINOL] | > 20 µM | > 20 µM
CCN(CC)CCNC(=O)c1c(C)[nH]c(/C=C2\C(=O)Nc3ccc(F)cc32)c1C [SUNITINIB] | > 20 µM | > 20 µM
CC[N+](CC)(CC)CCC(O)(c1ccccc1)C1CCCCC1 (stereo not drawn) [TRIDIHEXETHYL] | > 20 µM | > 20 µM
CCCn1c(=O)c2[nH]c(C3CC4CC3[C@H]3O[C@@H]43)nc2n(CCC)c1=O (stereo partly drawn) | > 20 µM | > 20 µM
CCOC(=O)OC(C)OC(=O)[C@@H]1N2C(=O)[C@@H](NC(=O)[C@H](N)c3ccccc3)[C@H]2SC1(C)C (stereo partly drawn) [BACAMPICILLIN] | > 20 µM | > 20 µM
CN1C(CC(O)c2ccccc2)CCCC1CC(O)c1ccccc1 (stereo not drawn) | > 20 µM | > 20 µM
